{"source": "ChEMBL document CHEMBL3882386", "about": "“Novel methods for identifying improved, non-sedating alpha-2 agonists” (2005)", "key": {"[1]": {"target": "T1, Alpha-2A adrenergic receptor (Mus musculus, UniProt Q01338)", "T1 sequence (Q01338 whole entry)": "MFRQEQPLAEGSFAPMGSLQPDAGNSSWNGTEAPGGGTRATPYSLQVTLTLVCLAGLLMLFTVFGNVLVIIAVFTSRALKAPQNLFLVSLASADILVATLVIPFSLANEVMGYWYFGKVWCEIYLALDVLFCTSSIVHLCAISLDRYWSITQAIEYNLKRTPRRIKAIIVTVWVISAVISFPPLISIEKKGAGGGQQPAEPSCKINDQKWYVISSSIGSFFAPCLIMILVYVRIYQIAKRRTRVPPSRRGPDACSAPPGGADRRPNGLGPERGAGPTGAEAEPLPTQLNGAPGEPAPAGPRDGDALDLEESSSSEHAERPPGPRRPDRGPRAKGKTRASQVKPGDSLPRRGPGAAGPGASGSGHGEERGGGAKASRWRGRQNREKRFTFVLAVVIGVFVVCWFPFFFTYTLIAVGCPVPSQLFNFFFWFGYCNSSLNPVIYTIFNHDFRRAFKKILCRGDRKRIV", "test": "Binding affinity to mouse alpha-2A receptor expressed in COS7 cells", "format": "cell-based, COS-7"}, "[2]": {"target": "T2, Alpha-2C adrenergic receptor (Mus musculus, UniProt Q01337)", "T2 sequence (Q01337 whole entry)": "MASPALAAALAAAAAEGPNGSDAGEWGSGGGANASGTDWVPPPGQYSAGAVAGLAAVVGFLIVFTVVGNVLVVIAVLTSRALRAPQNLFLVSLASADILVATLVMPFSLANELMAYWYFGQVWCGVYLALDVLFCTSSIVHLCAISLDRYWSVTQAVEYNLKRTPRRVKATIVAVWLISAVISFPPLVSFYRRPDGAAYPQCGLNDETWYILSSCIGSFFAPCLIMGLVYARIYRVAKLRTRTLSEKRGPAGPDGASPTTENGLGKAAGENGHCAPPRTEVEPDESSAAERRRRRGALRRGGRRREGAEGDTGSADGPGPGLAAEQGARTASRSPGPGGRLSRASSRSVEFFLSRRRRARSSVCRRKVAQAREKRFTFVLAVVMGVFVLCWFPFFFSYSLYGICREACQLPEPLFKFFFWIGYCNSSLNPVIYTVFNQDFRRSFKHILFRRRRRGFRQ", "test": "Binding affinity to mouse alpha-2C receptor expressed in COS7 cells", "format": "cell-based, COS-7"}, "Mus musculus [3]": {"test_system": "Mus musculus", "test": "Reduction in sulprostone-induced tactile hypersensitivity in C57BL/6 mouse at 0.1 to 1000 ug/kg, po", "format": "functional"}, "Mus musculus [4]": {"test_system": "Mus musculus", "test": "Induction of sedation in C57BL/6 mouse at 100 to 1000 ug/kg, po relative to control", "format": "organism-based", "conditions": "in vivo"}, "Mus musculus [5]": {"test_system": "Mus musculus", "test": "Induction of sedation in C57BL/6 mouse at 100 to 1000 ug/kg, ip relative to control", "format": "organism-based", "conditions": "in vivo"}, "Mus musculus [6]": {"test_system": "Mus musculus", "test": "Reduction in […]-induced tactile hypersensitivity in C57BL/6 mouse at 1 ug/kg, ip relative to control", "format": "functional", "design": "scale not given: the % may be the effect or the level left"}, "Mus musculus [7]": {"test_system": "Mus musculus", "test": "Reduction in […]-induced tactile hypersensitivity in C57BL/6 mouse at 1 ug/kg, po relative to control", "format": "functional", "design": "scale not given: the % may be the effect or the level left"}, "Mus musculus [8]": {"test_system": "Mus musculus", "test": "Induction of sedation in C57BL/6 mouse at 0.1 to 1000 ug/kg, po", "conditions": "in vivo"}, "Mus musculus [9]": {"test_system": "Mus musculus", "test": "Reduction in […]-induced tactile hypersensitivity in C57BL/6 mouse at 10 ug/kg, ip relative to control", "format": "functional", "design": "scale not given: the % may be the effect or the level left"}, "Mus musculus [10]": {"test_system": "Mus musculus", "test": "Induction of sedation in C57BL/6 mouse at 100 ug/kg, ip relative to control", "format": "organism-based", "conditions": "in vivo, 0.1 mg/kg"}}, "note": "Activity calls are given as the source filed them. No cut-off for these calls is given here."}
{"compound": "NC[C@H](O)c1ccc(O)c(O)c1", "note": "[NOREPINEPHRINE]", "values": [{"measurement": "Ki", "setting": "[1]", "result": 5.8, "unit": "µM"}, {"measurement": "Ki", "setting": "[2]", "result": 0.65, "unit": "µM"}]}
{"compound": "Cc1cccc([C@H](C)c2c[nH]c(=S)[nH]2)c1C", "note": "[REZATOMIDINE]", "values": [{"measurement": "Activity", "setting": "Mus musculus [3]", "result": "Active"}, {"measurement": "Activity", "setting": "Mus musculus [4]", "result": "< 30", "unit": "%"}, {"measurement": "Activity", "setting": "Mus musculus [5]", "result": "< 30", "unit": "%"}, {"measurement": "Activity", "setting": "Mus musculus [6]", "result": 50, "unit": "%"}, {"measurement": "Activity", "setting": "Mus musculus [7]", "result": 50, "unit": "%"}, {"measurement": "Activity", "setting": "Mus musculus [8]", "result": "Non-Toxic"}]}
{"compound": "OCC1=CCCC(Cc2c[nH]cn2)C1", "note": "(stereo not given)", "values": [{"measurement": "Activity", "setting": "Mus musculus [9]", "result": ">50", "unit": "%"}, {"measurement": "Activity", "setting": "Mus musculus [10]", "result": "< 30", "unit": "%"}]}
